Read-outs that look alike come from different tables or passages of the source.
Columns and labels:
[1] = system: Yeast SR; parameters: method as in ref 4 (a number printed in a supplementary file, which may have a reference list of its own: not looked up in the article's list); conditions: ref 4; cited from earlier work
[2] = target: T1, human SR (hSR) (Homo sapiens, UniProt Q9GZT4, C2D/C6D); test: Thermal denaturation assay; assay type: binding
T1 construct: (His)6 (C); made in house; host or cells: E. coli (BL21-CodonPlus (DE3)-RIL for the mutants; the wild type is only 'as described[33]')
T1 sequence (Q9GZT4 1-340 C2D/C6D): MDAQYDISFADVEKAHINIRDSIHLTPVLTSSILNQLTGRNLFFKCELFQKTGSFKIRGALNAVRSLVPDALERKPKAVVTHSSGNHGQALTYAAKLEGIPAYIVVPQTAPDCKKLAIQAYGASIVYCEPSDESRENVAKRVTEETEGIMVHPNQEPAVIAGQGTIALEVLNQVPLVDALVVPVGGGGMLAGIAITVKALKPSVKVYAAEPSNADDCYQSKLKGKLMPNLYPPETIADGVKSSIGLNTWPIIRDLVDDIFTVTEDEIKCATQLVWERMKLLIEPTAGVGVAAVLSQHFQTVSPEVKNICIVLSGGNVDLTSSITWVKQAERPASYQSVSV
Procedure: The melting temperature (Tm) of SR was determined in the presence and absence of malonate (disodium salt) and 1 mM ATP (disodium salt, Fisher) in a buffer containing 100 mM CHES pH 8.5, 1 mM MgCl2, and 10 µM PLP. The reaction mixture was prepared in 96-well plates containing final concentrations of 2 µM SR, 5X SYPRO Orange dye (from 5000X concentrate, ThermoFisher), and a 6-point 1:3 dilution series of malonate (0–1 mM). Each condition was assessed with and without 1 mM ATP in the buffer. Thermal denaturation analysis was performed in triplicate by transferring 10 µL reaction mixture to 384-well plates for use in a BioRad CFX384 Touch Real-Time PCR Detection System. Programme: 10 min hold at 25 °C, plate read, increase by increments of 0.5 °C up to 95 °C; each step accompanied by a 15 s hold and plate read. Data were analysed using GraphPad Prism.

[3] = system: human SR; parameters: method as in ref 57,58 (a number printed in a supplementary file, which may have a reference list of its own: not looked up in the article's list); conditions: upon addition of ATP; cited from earlier work
[4] = system: hSR; parameters: method as in PMID 25331425; conditions: cited from earlier work
[5] = system: SR; conditions: cited from earlier work
[6] = system: SR; parameters: method as in supplementary refs 2, 11-32; conditions: literature summary; ref supplementary refs 2, 11-32; cited from earlier work
[7] = system: mouse SR; parameters: method as in PMID 28533113; conditions: cited from earlier work
[8] = target: T2, human serine racemase (hSR) WT (Homo sapiens, UniProt Q9GZT4, C2D/C6D); test: L- to D-Ser racemisation coupled luminescence assay, wild-type hSR; assay type: biochemical; conditions: malonate used as control compound
T2 construct: (His)6 (C); made in house; host or cells: E. coli (BL21-CodonPlus (DE3)-RIL for the mutants; the wild type is only 'as described[33]')
T2 sequence (Q9GZT4 1-340 C2D/C6D): T1 sequence (Q9GZT4 1-340 C2D/C6D)
Procedure: The ability of compounds to inhibit the L to D-Ser racemisation activity of hSR was measured in a coupled assay. In the assay, hSR converts L-Ser to D-Ser. The D-Ser is then converted into pyruvate, ammonia and hydrogen peroxide using D-amino acid oxidase. Next, the hydrogen peroxide reacts with luminol in the presence of horseradish peroxidase, producing luminescent by-product. In the assay malonate was used as a control compound and gave 100% inhibition – results for XChem compounds are shown in Supplementary Table 4 and in supplementary Fig. 12. The activity of the wild-type and the three Y121 mutants, Y121F, Y121A and Y121G was measured at six ATP concentrations (1 mM, 0.5 mM, 0.25 mM, 0.125 mM, 0.062 mM and 0.031 mM) as shown in supplementary Fig. 11.
The inhibition of hSR activity was measured using a luminescence assay in a 384 well plate (flat bottom white, Corning). Initially, each well contained 100 mM Tris pH 8.5, 0.05% Pluronic f-127 (VWR), 1 mM MgCl2, 1 mM ATP (disodium salt, Fisher), 10 µM PLP, 0.3 nM hSR, 2 mM L-serine and compound at 16.67 mM to 0.0077 mM (see supplementary Fig. 12) and had 16.7% DMSO concentration. The plate was incubated at RT with shaking for 30 min. After this, the reaction was stopped using a detection mix. The final well concentration was 100 mM Tris pH 8.5, 0.05% Pluronic f-127 (VWR), 1 mM EDTA (Fisher), 0.25 U/mL horseradish peroxidase, 0.5 U/mL D-amino acid oxidase and 25 µM Luminol (Insight Biotechnology) and 8.4% DMSO. The plate was left to incubate covered and shaking for 10 min. The plate was then read using a PHERAstar (BMG) plate reader. For the ATP dependant activity data, the method was kept the same, except for varying the concentration of ATP.
The relative light units read (x) on the PHERAstar were converted into percentage inhibition (PI) using the equation: PI=100x[1−(x−Min)/(Max−Min)] where min is negative control (100% inhibition) and max is the positive control (no inhibition). The IC50s were calculated with GraphPad (Prism 8.3.1, Graphpad Software, San Diego CA).

[9] = target: T1, human SR (hSR); parameters: method as in PMID 18812225; conditions: read-out: inhibition constant (Ki); cited from earlier work
[10] = 1 mM of the additive alone, reference Tm 47.3 °C

| ΔTm ([2]; 1 mM ATP and 1 mM malonate together) | malonate concentration required for the cooperative stabilising effect of ATP and malonate ([2]; with 1 mM ATP) | inhibition by control compound [8] | Compound | increase of both reactions (racemisation and elimination) [1] | ΔTm [2, 10] | increase of D-serine elimination [3] | increase of L-serine elimination [3] | increase of L-serine racemisation [3] | increase of hSR affinity for malonate ([4]; effect of ATP on malonate binding to the catalytic site) | IC50 ([5]; ref 48) | IC50 ([5]; ref 49) | Ki ([5]; review of SR inhibitors) | Inhibition mode [6] | IC50 [7] | Ki [9] | increase of the affinity of hSR for ATP ([4]; allosteric effect of malonate on the ATP site) |
| --- | --- | --- | --- | --- | --- | --- | --- | --- | --- | --- | --- | --- | --- | --- | --- | --- |
| – | – | – | Nc1ncnc2c1ncn2[C@@H]1O[C@H](COP(=O)(O)OP(=O)(O)OP(=O)(O)O)[C@@H](O)[C@H]1O [ATP, Adenosine triphosphate] | less than 2 fold | −1.3 °C | 4 fold | 31 fold | ~2 fold | at least 9 fold | – | – | – | – | – | – | – |
| +3.7 °C | > 0.1 mM | 100% | O=C(O)CC(=O)O [malonate] | – | +1.2 °C | – | – | – | – | 67 µM | 449 µM | < 100 µM | Competitive | 770 µM | 33 µM | 100 fold |

— paper PMC9001717, “Tyrosine 121 moves revealing a ligandable pocket that couples catalysis to ATP-binding in serine racemase” (Communications Biology, 2022)
